Assay results taken from publication PMC8429728, “TNK1 is a ubiquitin-binding and 14-3-3-regulated kinase that can be targeted to block tumor growth” (Nature Communications, 2021).
Where two headings read alike, the source gives them in different places.

Legend:
Experiment in all cases: biochemical
Parameters in all cases: Reaction Biology 371-kinase panel at Km ATP, per cent enzyme activity relative to DMSO, single dose in duplicate
Settings in all cases: duplicate measurements, Km ATP
[1] = target: T1, PKCd (Homo sapiens, UniProt Q05655)
T1 construct: gene PRKCD
Method in brief: (§1)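 Activity of each kinase, normalised to DMSO-treated controls, served as the read-out. The inhibitor was tested at 300 nM against 371 kinases in vitro. Curves fitted by variable-slope sigmoidal dose-response, constrained to a bottom of 0, gave IC50.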

[2] = target: T2, MSSK1/STK23 (Homo sapiens, UniProt Q9UPE1)
T2 construct: gene SRPK3
Method in brief: as §1

[3] = target: YES/YES1 (Homo sapiens, UniProt P07947)
Method in brief: as §1

[4] = target: BRAF (Homo sapiens, UniProt P15056)
Method in brief: as §1

[5] = target: T3, LCK2/ICK (Homo sapiens, UniProt Q9UPZ9)
T3 construct: gene CILK1
Method in brief: as §1

[6] = target: TEC (Homo sapiens, UniProt P42680)
Method in brief: as §1

[7] = target: MST2/STK3 (Homo sapiens, UniProt Q13188)
Method in brief: as §1

[8] = target: EPHA7 (Homo sapiens, UniProt Q15375)
Method in brief: as §1

[9] = target: PIM1 (Homo sapiens, UniProt P11309)
Method in brief: as §1

[10] = target: p70S6K/RPS6KB1 (Homo sapiens, UniProt P23443)
Method in brief: as §1

[11] = target: EPHA8 (Homo sapiens, UniProt P29322)
Method in brief: as §1

[12] = target: RON/MST1R (Homo sapiens, UniProt Q04912)
Method in brief: as §1

[13] = target: T4, TRKA (Homo sapiens, UniProt P04629)
T4 construct: gene NTRK1
Method in brief: as §1

[14] = target: EPHA1 (Homo sapiens, UniProt P21709)
Method in brief: as §1

[15] = target: MRCKa/CDC42BPA (Homo sapiens, UniProt Q5VT25)
Method in brief: as §1

[16] = target: ALK1/ACVRL1 (Homo sapiens, UniProt P37023)
Method in brief: as §1

[17] = target: P38d/MAPK13 (Homo sapiens, UniProt O15264)
Method in brief: as §1

[18] = target: T5, IR (Homo sapiens, UniProt P06213)
T5 construct: gene INSR
Method in brief: as §1

[19] = target: BLK (Homo sapiens, UniProt P51451)
Method in brief: as §1

[20] = target: T6, CK1d (Homo sapiens, UniProt P48730)
T6 construct: gene CSNK1D
Method in brief: as §1

[21] = read-out: % Enzyme Activity (relative to DMSO controls) / TP-0005801 (0.3µM) / Data 1
[22] = read-out: % Enzyme Activity (relative to DMSO controls) / TP-0005801 (0.3µM) / Data 2

T3 sequence (Q9UPZ9 whole entry): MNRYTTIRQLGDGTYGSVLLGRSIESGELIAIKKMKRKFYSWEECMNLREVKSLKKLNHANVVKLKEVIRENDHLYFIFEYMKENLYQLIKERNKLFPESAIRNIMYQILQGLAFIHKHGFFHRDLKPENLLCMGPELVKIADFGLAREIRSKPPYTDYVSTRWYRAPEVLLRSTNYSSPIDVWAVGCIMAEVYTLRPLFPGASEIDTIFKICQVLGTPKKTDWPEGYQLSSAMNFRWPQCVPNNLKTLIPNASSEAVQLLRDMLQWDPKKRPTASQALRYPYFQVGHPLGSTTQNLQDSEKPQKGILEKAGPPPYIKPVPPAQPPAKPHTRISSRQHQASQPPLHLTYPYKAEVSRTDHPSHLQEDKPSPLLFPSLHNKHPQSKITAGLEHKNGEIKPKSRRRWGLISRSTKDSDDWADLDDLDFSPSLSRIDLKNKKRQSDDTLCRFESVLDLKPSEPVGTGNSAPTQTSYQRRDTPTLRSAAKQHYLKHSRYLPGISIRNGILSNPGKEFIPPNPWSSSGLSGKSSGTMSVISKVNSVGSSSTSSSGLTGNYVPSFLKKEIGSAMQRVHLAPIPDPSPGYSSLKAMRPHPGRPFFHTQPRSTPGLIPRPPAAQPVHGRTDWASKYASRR
T5 sequence (P06213 whole entry): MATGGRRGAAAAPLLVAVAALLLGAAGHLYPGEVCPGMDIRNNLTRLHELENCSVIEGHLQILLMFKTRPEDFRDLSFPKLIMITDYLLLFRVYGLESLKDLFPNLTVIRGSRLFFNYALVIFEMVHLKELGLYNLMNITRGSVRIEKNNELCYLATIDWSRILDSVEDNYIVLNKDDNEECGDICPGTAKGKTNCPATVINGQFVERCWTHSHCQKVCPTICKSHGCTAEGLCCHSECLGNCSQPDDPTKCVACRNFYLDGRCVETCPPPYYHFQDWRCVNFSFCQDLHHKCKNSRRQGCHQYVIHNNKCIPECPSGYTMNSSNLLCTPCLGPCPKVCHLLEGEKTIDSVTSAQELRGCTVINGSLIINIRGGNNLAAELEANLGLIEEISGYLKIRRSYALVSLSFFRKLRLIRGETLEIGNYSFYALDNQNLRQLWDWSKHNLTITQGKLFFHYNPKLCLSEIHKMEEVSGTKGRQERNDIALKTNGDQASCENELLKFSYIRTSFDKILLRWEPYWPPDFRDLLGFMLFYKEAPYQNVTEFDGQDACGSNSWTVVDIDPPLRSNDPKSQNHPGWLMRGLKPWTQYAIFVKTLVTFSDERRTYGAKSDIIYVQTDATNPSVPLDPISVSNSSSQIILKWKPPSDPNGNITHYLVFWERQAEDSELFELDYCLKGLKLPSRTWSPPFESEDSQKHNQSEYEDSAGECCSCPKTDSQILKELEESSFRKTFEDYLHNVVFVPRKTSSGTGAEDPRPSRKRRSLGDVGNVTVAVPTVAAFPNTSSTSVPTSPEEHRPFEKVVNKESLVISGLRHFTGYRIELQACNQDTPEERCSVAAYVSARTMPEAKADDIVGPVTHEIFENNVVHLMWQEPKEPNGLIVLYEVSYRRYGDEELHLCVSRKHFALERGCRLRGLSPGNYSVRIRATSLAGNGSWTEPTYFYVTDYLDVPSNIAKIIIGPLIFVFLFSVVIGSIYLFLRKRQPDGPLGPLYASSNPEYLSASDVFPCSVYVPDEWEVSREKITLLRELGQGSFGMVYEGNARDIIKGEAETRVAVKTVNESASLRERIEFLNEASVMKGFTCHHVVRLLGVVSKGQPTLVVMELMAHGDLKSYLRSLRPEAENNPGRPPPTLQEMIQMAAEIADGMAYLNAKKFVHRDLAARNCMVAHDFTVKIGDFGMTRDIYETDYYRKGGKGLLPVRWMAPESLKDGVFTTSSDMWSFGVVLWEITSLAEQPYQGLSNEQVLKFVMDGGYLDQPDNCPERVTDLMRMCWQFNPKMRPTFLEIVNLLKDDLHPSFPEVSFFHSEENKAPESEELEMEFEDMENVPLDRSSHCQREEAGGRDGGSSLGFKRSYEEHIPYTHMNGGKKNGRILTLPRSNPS
Chain of BLK (P51451 whole entry): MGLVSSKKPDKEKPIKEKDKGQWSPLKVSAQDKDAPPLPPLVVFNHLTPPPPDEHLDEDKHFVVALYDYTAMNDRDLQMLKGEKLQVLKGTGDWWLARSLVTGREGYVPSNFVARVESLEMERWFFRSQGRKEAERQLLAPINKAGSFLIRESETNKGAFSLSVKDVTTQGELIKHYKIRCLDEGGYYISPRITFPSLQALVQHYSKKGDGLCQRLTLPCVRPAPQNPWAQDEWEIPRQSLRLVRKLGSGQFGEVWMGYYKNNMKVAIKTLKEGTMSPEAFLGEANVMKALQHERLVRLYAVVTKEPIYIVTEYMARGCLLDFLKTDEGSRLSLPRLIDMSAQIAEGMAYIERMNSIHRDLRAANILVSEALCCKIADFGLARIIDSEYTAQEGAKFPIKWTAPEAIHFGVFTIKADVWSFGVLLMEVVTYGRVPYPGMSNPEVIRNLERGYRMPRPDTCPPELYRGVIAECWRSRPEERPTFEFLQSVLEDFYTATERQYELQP
Chain of RON/MST1R (Q04912 whole entry): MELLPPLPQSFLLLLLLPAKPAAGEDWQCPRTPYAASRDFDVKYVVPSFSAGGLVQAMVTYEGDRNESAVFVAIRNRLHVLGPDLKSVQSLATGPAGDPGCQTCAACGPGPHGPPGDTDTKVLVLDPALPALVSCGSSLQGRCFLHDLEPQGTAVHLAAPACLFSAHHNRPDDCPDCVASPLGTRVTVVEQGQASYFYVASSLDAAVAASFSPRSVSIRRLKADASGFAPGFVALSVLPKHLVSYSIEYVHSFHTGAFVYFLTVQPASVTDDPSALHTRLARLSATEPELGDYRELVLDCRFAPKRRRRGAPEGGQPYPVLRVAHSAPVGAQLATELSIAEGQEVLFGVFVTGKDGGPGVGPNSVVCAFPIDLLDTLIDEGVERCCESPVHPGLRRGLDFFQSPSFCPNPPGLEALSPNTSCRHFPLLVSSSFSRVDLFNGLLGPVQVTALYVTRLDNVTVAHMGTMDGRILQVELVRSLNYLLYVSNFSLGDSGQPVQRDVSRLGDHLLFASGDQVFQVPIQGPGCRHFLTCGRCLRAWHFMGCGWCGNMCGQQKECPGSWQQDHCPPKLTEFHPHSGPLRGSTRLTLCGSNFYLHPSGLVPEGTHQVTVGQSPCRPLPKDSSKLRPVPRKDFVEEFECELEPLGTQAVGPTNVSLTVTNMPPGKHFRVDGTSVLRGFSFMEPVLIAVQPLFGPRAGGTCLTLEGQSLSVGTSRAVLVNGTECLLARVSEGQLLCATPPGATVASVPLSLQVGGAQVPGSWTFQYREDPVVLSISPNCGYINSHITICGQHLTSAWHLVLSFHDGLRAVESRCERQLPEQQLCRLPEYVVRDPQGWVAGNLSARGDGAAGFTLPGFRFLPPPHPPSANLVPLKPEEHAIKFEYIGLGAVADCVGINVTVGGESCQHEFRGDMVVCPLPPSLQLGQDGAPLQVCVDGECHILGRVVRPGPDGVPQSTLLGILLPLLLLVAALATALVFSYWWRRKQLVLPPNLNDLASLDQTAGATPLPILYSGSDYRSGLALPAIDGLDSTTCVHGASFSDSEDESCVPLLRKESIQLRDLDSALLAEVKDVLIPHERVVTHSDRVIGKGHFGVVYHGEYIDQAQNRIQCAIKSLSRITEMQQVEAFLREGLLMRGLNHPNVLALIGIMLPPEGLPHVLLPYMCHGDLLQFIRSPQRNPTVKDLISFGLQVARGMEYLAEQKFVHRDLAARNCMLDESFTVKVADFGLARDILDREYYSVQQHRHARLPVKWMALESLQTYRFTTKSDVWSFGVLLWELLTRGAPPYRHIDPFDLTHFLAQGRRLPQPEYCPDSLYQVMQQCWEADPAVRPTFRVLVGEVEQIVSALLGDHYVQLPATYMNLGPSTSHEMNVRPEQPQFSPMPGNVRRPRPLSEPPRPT
Chain of BRAF (P15056 whole entry): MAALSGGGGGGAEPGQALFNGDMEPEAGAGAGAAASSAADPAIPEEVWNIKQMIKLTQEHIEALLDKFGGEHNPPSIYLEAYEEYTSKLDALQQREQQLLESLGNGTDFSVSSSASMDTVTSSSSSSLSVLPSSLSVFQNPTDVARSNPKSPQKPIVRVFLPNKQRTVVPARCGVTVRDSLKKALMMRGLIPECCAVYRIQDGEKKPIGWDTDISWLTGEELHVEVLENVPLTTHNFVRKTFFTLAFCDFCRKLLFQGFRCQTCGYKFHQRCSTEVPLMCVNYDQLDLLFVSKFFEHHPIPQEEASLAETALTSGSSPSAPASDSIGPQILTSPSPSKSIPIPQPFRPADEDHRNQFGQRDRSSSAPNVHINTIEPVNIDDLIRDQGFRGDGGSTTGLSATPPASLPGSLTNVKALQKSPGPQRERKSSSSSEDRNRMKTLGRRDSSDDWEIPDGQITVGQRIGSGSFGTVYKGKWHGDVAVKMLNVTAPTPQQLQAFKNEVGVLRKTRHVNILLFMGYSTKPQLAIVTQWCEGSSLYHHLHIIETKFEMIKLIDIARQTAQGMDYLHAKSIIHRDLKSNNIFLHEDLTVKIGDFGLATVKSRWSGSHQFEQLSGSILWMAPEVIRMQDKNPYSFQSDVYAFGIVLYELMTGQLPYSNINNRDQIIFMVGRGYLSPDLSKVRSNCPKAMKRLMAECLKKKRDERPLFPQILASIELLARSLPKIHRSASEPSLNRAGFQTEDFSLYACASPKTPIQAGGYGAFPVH
Chain of P38d/MAPK13 (O15264 whole entry): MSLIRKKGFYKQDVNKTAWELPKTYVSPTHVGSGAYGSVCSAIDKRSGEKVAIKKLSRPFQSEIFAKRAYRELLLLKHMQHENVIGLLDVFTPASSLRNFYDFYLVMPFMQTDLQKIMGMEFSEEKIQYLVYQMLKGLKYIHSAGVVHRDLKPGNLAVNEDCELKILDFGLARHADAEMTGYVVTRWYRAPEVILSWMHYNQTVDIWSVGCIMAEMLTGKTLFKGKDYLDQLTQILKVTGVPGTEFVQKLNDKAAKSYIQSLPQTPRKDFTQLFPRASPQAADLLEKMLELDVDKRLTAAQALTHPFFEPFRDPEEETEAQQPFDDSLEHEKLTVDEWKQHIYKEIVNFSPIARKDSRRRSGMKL

Q: For COc1cc(N2CCN(C)CC2)c(C)cc1Nc1ncc(Br)c(Nc2cccnc2N(C)C)n1 [TP-5801], which remaining activity at 0.3 µM [1, 21] is on record?
A: Its remaining activity at 0.3 µM is 113%.

Q: And the remaining activity at 0.3 µM [1, 22]?
A: The remaining activity at 0.3 µM was 99.7%.

Q: And the remaining activity at 0.3 µM [2, 21]?
A: Its remaining activity at 0.3 µM is 89.7%.

Q: What about the remaining activity at 0.3 µM [2, 22] of the same molecule?
A: Its remaining activity at 0.3 µM is 88.8%.

Q: What about the remaining activity at 0.3 µM [3, 21] of the same molecule?
A: Its remaining activity at 0.3 µM is 87.4%.

Q: What about the remaining activity at 0.3 µM [3, 22] of the same molecule?
A: The remaining activity at 0.3 µM was 85.4%.

Q: And the remaining activity at 0.3 µM [4, 21]?
A: Its remaining activity at 0.3 µM is 87.3%.

Q: And the remaining activity at 0.3 µM [4, 22]?
A: The remaining activity at 0.3 µM was 85.1%.

Q: What about the remaining activity at 0.3 µM [5, 21] of the same molecule?
A: The remaining activity at 0.3 µM was 90.2%.

Q: What about the remaining activity at 0.3 µM [5, 22] of the same molecule?
A: The remaining activity at 0.3 µM was 87.9%.

Q: What about the remaining activity at 0.3 µM [6, 21] of the same molecule?
A: Its remaining activity at 0.3 µM is 93.4%.

Q: What about the remaining activity at 0.3 µM [6, 22] of the same molecule?
A: Its remaining activity at 0.3 µM is 92.2%.

Q: What about the remaining activity at 0.3 µM [7, 21] of the same molecule?
A: The remaining activity at 0.3 µM was 97.7%.

Q: And the remaining activity at 0.3 µM [7, 22]?
A: Its remaining activity at 0.3 µM is 97.5%.

Q: What about the remaining activity at 0.3 µM [8, 21] of the same molecule?
A: Its remaining activity at 0.3 µM is 95.2%.

Q: And the remaining activity at 0.3 µM [8, 22]?
A: Its remaining activity at 0.3 µM is 94%.

Q: And the remaining activity at 0.3 µM [9, 21]?
A: The remaining activity at 0.3 µM was 93.2%.

Q: What about the remaining activity at 0.3 µM [9, 22] of the same molecule?
A: The remaining activity at 0.3 µM was 92.8%.

Q: And the remaining activity at 0.3 µM [10, 21]?
A: Its remaining activity at 0.3 µM is 105%.

Q: And the remaining activity at 0.3 µM [10, 22]?
A: The remaining activity at 0.3 µM was 102%.

Q: And the remaining activity at 0.3 µM [11, 21]?
A: The remaining activity at 0.3 µM was 95.1%.

Q: And the remaining activity at 0.3 µM [11, 22]?
A: Its remaining activity at 0.3 µM is 93.8%.

Q: And the remaining activity at 0.3 µM [12, 21]?
A: The remaining activity at 0.3 µM was 94%.

Q: And the remaining activity at 0.3 µM [12, 22]?
A: The remaining activity at 0.3 µM was 92.4%.

Q: What about the remaining activity at 0.3 µM [13, 21] of the same molecule?
A: The remaining activity at 0.3 µM was 93.3%.

Q: And the remaining activity at 0.3 µM [13, 22]?
A: The remaining activity at 0.3 µM was 82.4%.

Q: And the remaining activity at 0.3 µM [14, 21]?
A: Its remaining activity at 0.3 µM is 96.8%.

Q: What about the remaining activity at 0.3 µM [14, 22] of the same molecule?
A: Its remaining activity at 0.3 µM is 96.5%.

Q: What about the remaining activity at 0.3 µM [15, 21] of the same molecule?
A: The remaining activity at 0.3 µM was 104%.

Q: And the remaining activity at 0.3 µM [15, 22]?
A: Its remaining activity at 0.3 µM is 100%.

Q: What about the remaining activity at 0.3 µM [16, 21] of the same molecule?
A: Its remaining activity at 0.3 µM is 88.3%.

Q: What about the remaining activity at 0.3 µM [16, 22] of the same molecule?
A: The remaining activity at 0.3 µM was 83.6%.

Q: And the remaining activity at 0.3 µM [17, 21]?
A: Its remaining activity at 0.3 µM is 102%.

Q: What about the remaining activity at 0.3 µM [17, 22] of the same molecule?
A: Its remaining activity at 0.3 µM is 91.4%.

Q: What about the remaining activity at 0.3 µM [18, 21] of the same molecule?
A: The remaining activity at 0.3 µM was 3%.

Q: And the remaining activity at 0.3 µM [18, 22]?
A: The remaining activity at 0.3 µM was 2.81%.

Q: And the remaining activity at 0.3 µM [19, 21]?
A: The remaining activity at 0.3 µM was 88.3%.

Q: And the remaining activity at 0.3 µM [19, 22]?
A: The remaining activity at 0.3 µM was 87.5%.

Q: And the remaining activity at 0.3 µM [20, 21]?
A: Its remaining activity at 0.3 µM is 101%.

Q: And the remaining activity at 0.3 µM [20, 22]?
A: Its remaining activity at 0.3 µM is 98.4%.
